{"source": "the NIST ThermoML archive (doi:10.1016/j.jct.2013.06.003)", "key": {"[1]": {"test": "Molar enthalpy of transition or fusion", "details": "Crystal; DSC"}, "[2]": {"details": "Crystal; for Normal melting temperature: DTA; for vapor or sublimation pressure: Calculated from knudsen effusion weight loss"}}, "note": "Several values for one entry are separate records, joined by “and”; a condition that tells them apart may be missing. Identical values can stand only once. Numbers after ± are expanded uncertainties."}
{"smiles": "N#Cc1ccccc1Br", "note": "[2-bromobenzonitrile]", "values": [{"measurement": "Molar enthalpy of transition or fusion", "setting": "[1]", "value": "17.2 ± 0.7", "unit": "kJ/mol"}, {"measurement": "Normal melting temperature", "setting": "[2]", "value": "54.0 ± 0.7", "unit": "°C"}]}
{"smiles": "N#Cc1cccc(Br)c1", "note": "[3-bromobenzonitrile]", "values": [{"measurement": "Molar enthalpy of transition or fusion", "setting": "[1]", "value": "16.6 ± 1.9", "unit": "kJ/mol"}]}
{"smiles": "N#Cc1cccc(I)c1", "note": "[3-iodobenzonitrile]", "values": [{"measurement": "Molar enthalpy of transition or fusion", "setting": "[1]", "value": "15.1 ± 1.3", "unit": "kJ/mol"}, {"measurement": "vapor or sublimation pressure", "setting": "[2]; 276.18 K", "value": "9.88e-05 ± 5e-06 kPa and 0.0001 ± 5e-06 kPa and 9.93e-05 ± 5e-06 kPa"}, {"measurement": "vapor or sublimation pressure", "setting": "[2]; 278.16 K", "value": "0.000122 ± 6e-06 kPa and 0.000125 ± 6e-06 kPa and 0.000123 ± 6e-06 kPa"}, {"measurement": "vapor or sublimation pressure", "setting": "[2]; 280.26 K", "value": "0.000161 ± 8e-06 kPa and 0.00016 ± 8e-06 kPa and 0.000163 ± 8e-06 kPa"}, {"measurement": "vapor or sublimation pressure", "setting": "[2]; 282.15 K", "value": "0.000204 ± 1e-05 kPa and 0.000206 ± 1e-05 kPa and 0.000207 ± 1e-05 kPa"}, {"measurement": "vapor or sublimation pressure", "setting": "[2]; 284.15 K", "value": "0.000269 ± 1.3e-05", "unit": "kPa"}, {"measurement": "vapor or sublimation pressure", "setting": "[2]; 286.17 K", "value": "0.00034 ± 1.7e-05 kPa and 0.000339 ± 1.7e-05 kPa and 0.000336 ± 1.7e-05 kPa"}, {"measurement": "vapor or sublimation pressure", "setting": "[2]; 288.17 K", "value": "0.000437 ± 2.2e-05 kPa and 0.000432 ± 2.2e-05 kPa and 0.000441 ± 2.2e-05 kPa"}, {"measurement": "vapor or sublimation pressure", "setting": "[2]; 290.14 K", "value": "0.000539 ± 2.7e-05 kPa and 0.000537 ± 2.7e-05 kPa and 0.00054 ± 2.7e-05 kPa"}, {"measurement": "vapor or sublimation pressure", "setting": "[2]; 292.13 K", "value": "0.00069 ± 3.5e-05 kPa and 0.000686 ± 3.4e-05 kPa and 0.000699 ± 3.5e-05 kPa"}, {"measurement": "vapor or sublimation pressure", "setting": "[2]; 294.21 K", "value": "0.000869 ± 4.4e-05 kPa and 0.000876 ± 4.4e-05 kPa and 0.000882 ± 4.4e-05 kPa"}, {"measurement": "vapor or sublimation pressure", "setting": "[2]; 296.14 K", "value": "0.0011 ± 0.00011 kPa and 0.00111 ± 0.00011 kPa"}, {"measurement": "Normal melting temperature", "setting": "[2]", "value": "40.12 ± 0.39", "unit": "°C"}]}
{"smiles": "N#Cc1ccccc1I", "note": "[2-iodobenzonitrile]", "values": [{"measurement": "Molar enthalpy of transition or fusion", "setting": "[1]", "value": "16.6 ± 1.3", "unit": "kJ/mol"}, {"measurement": "vapor or sublimation pressure", "setting": "[2]; 283.19 K", "value": "0.000104 ± 5e-06 kPa and 0.000103 ± 5e-06 kPa and 0.000101 ± 5e-06 kPa"}, {"measurement": "vapor or sublimation pressure", "setting": "[2]; 285.15 K", "value": "0.000128 ± 6e-06 kPa and 0.000129 ± 6e-06 kPa and 0.000125 ± 6e-06 kPa"}, {"measurement": "vapor or sublimation pressure", "setting": "[2]; 287.17 K", "value": "0.00016 ± 8e-06 kPa and 0.000159 ± 8e-06 kPa and 0.000168 ± 8e-06 kPa"}, {"measurement": "vapor or sublimation pressure", "setting": "[2]; 288.91 K", "value": "0.000199 ± 1e-05 kPa and 0.000205 ± 1e-05 kPa"}, {"measurement": "vapor or sublimation pressure", "setting": "[2]; 291.13 K", "value": "0.000263 ± 1.3e-05 kPa and 0.000257 ± 1.3e-05 kPa and 0.000268 ± 1.3e-05 kPa"}, {"measurement": "vapor or sublimation pressure", "setting": "[2]; 293.15 K", "value": "0.000336 ± 1.7e-05 kPa and 0.000341 ± 1.7e-05 kPa and 0.000346 ± 1.7e-05 kPa"}, {"measurement": "vapor or sublimation pressure", "setting": "[2]; 295.15 K", "value": "0.000419 ± 2.1e-05 kPa and 0.000414 ± 2.1e-05 kPa and 0.000427 ± 2.1e-05 kPa"}, {"measurement": "vapor or sublimation pressure", "setting": "[2]; 297.15 K", "value": "0.000521 ± 2.6e-05 kPa and 0.000547 ± 2.7e-05 kPa"}, {"measurement": "vapor or sublimation pressure", "setting": "[2]; 299.12 K", "value": "0.000651 ± 3.3e-05 kPa and 0.00066 ± 3.3e-05 kPa and 0.000671 ± 3.4e-05 kPa"}, {"measurement": "vapor or sublimation pressure", "setting": "[2]; 301.15 K", "value": "0.000857 ± 4.3e-05 kPa and 0.000861 ± 4.3e-05 kPa and 0.000864 ± 4.3e-05 kPa"}, {"measurement": "vapor or sublimation pressure", "setting": "[2]; 303.17 K", "value": "0.00103 ± 0.0001", "unit": "kPa"}, {"measurement": "Normal melting temperature", "setting": "[2]", "value": "53.54 ± 0.39", "unit": "°C"}]}
{"smiles": "N#Cc1ccc(I)cc1", "note": "[4-iodobenzonitrile]", "values": [{"measurement": "Molar enthalpy of transition or fusion", "setting": "[1]", "value": "23.6 ± 1.1", "unit": "kJ/mol"}, {"measurement": "vapor or sublimation pressure", "setting": "[2]; 294.17 K", "value": "0.000111 ± 6e-06 kPa and 0.000109 ± 5e-06 kPa and 0.00011 ± 6e-06 kPa"}, {"measurement": "vapor or sublimation pressure", "setting": "[2]; 296.2 K", "value": "0.000141 ± 7e-06 kPa and 0.000143 ± 7e-06 kPa"}, {"measurement": "vapor or sublimation pressure", "setting": "[2]; 298.18 K", "value": "0.000182 ± 9e-06", "unit": "kPa"}, {"measurement": "vapor or sublimation pressure", "setting": "[2]; 300.18 K", "value": "0.000226 ± 1.1e-05 kPa and 0.000228 ± 1.1e-05 kPa and 0.000223 ± 1.1e-05 kPa"}, {"measurement": "vapor or sublimation pressure", "setting": "[2]; 302.26 K", "value": "0.000294 ± 1.5e-05 kPa and 0.000296 ± 1.5e-05 kPa"}, {"measurement": "vapor or sublimation pressure", "setting": "[2]; 304.29 K", "value": "0.000353 ± 1.8e-05 kPa and 0.000365 ± 1.8e-05 kPa and 0.000368 ± 1.8e-05 kPa"}, {"measurement": "vapor or sublimation pressure", "setting": "[2]; 306.28 K", "value": "0.000452 ± 2.3e-05 kPa and 0.000454 ± 2.3e-05 kPa and 0.000444 ± 2.2e-05 kPa"}, {"measurement": "vapor or sublimation pressure", "setting": "[2]; 308.2 K", "value": "0.000562 ± 2.8e-05 kPa and 0.000563 ± 2.8e-05 kPa and 0.000565 ± 2.8e-05 kPa"}, {"measurement": "vapor or sublimation pressure", "setting": "[2]; 310.15 K", "value": "0.000715 ± 3.6e-05 kPa and 0.000717 ± 3.6e-05 kPa and 0.000701 ± 3.5e-05 kPa"}, {"measurement": "vapor or sublimation pressure", "setting": "[2]; 312.16 K", "value": "0.000889 ± 4.5e-05 kPa and 0.000882 ± 4.4e-05 kPa"}, {"measurement": "vapor or sublimation pressure", "setting": "[2]; 314.05 K", "value": "0.00108 ± 0.00011 kPa and 0.00106 ± 0.00011 kPa"}, {"measurement": "Normal melting temperature", "setting": "[2]", "value": "125.46 ± 0.39", "unit": "°C"}]}
{"smiles": "N#Cc1ccc(Br)cc1", "note": "[4-bromobenzonitrile]", "values": [{"measurement": "Molar enthalpy of transition or fusion", "setting": "[1]", "value": "20.7 ± 1.1", "unit": "kJ/mol"}]}
